Experimental findings from ChEMBL document CHEMBL3817795, “Identification and optimisation of a series of N-(4-anilino-2-pyridyl)acetamide activin receptor-like kinase 1 (ALK1) inhibitors” (Medchemcomm, 2016) are described below.

Converted amounts (≈) assume the structure as drawn.

A word on the logD: it is the decadic logarithm of the distribution of all forms, ionised or not, between an organic phase and buffer at a given pH. For orientation: solubility means the concentration that dissolves in the medium under given conditions. Lower therefore signals a poorly soluble substance.

One series can be described thus: Lipophilicity, log D of the compound at pH 7.4. The settings on record: buffer. The series is classed as physicochemical.
As to `O=C(Nc1cc(Nc2ccccc2)ccn1)C1CC1`, the logD amounted to 3.3.

`O=C(Nc1cc(Nc2c(Cl)ccc3c2OCO3)ccn1)C1CC1` yielded a logD of 3.3.

`O=C(Nc1cc(Nc2cccc3c2OCO3)ccn1)C1CC1` had a logD of 3.7.

For the compound `CC(=O)Nc1cc(Nc2c(Cl)ccc3c2OCO3)ccn1`, the logD turned out to be 2.7.

The next series is described as follows: Solubility of the compound. The series is classed as physicochemical.
Conditions: not given
`O=C(Nc1cc(Nc2ccccc2Cl)ccn1)C1CC1` had a solubility of 49 µM (≈ 14.1 µg/mL).

Compound `O=C(Nc1cc(Nc2c(Cl)ccc3c2OCO3)ccn1)C1CC1` showed a solubility of 46 µM (≈ 15.3 µg/mL).
